From ChEMBL document CHEMBL3045446, “In vitro antimicrobial and antimycobacterial activity of some chalcones and their derivatives” (2013)
In brackets after ≈: the same amount, converted by molar mass. Activity calls are given as the source filed them. No cut-off for these calls is given here.

How the values were obtained:
[1] = test system: Shigella flexneri; test: Antimicrobial activity against Shigella flexneri MTCC1457 assessed as growth inhibition at 100 ug/ml after 24 hr by agar streak dilution method; format: functional, organism-based
[2] = test system: Escherichia coli; test: Antimicrobial activity against Escherichia coli MTCC 739 assessed as growth inhibition at 100 ug/ml after 24 hr by agar streak dilution method; format: functional, organism-based
[3] = test system: Proteus vulgaris; test: Antimicrobial activity against Proteus vulgaris MTCC 1771 assessed as growth inhibition at 100 ug/ml after 24 hr by agar streak dilution method; format: functional, organism-based
[4] = test system: Pseudomonas aeruginosa; test: Antimicrobial activity against Pseudomonas aeruginosa MTCC 741 assessed as growth inhibition at 100 ug/ml after 24 hr by agar streak dilution method; format: functional, organism-based
[5] = test system: Mycobacterium tuberculosis; test: Antituberculosis activity against Mycobacterium tuberculosis H37Rv assessed as growth inhibition after 12 to 28 days by L-J MIC method; format: functional; details: for MIC: Mycobacterium tuberculosis, H37Rv
[6] = test system: Candida albicans; test: Antimicrobial activity against Candida albicans MTCC 183 assessed as growth inhibition after 48 hr by agar streak dilution method; format: functional; details: MTCC 183, 48 h
[7] = test system: Aspergillus clavatus; test: Antimicrobial activity against Aspergillus clavatus MTCC 1323 assessed as growth inhibition after 48 hr by agar streak dilution method; format: functional; details: MTCC 1323, 48 h
[8] = test system: Aspergillus fumigatus; test: Antimicrobial activity against Aspergillus fumigatus MTCC 343 assessed as growth inhibition after 48 hr by agar streak dilution method; format: functional; details: MTCC 343, 48 h
[9] = test system: Aspergillus niger; test: Antimicrobial activity against Aspergillus niger MTCC 282 assessed as growth inhibition after 48 hr by agar streak dilution method; format: functional; details: MTCC 282, 48 h
[10] = test system: Salmonella typhi; test: Antimicrobial activity against Salmonella enterica subsp. enterica serovar Typhi MTCC 733 assessed as growth inhibition after 24 hr by agar streak dilution method; format: functional; details: MTCC 733, 24 h
[11] = test system: Klebsiella pneumoniae; test: Antimicrobial activity against Klebsiella pneumoniae MTCC 109 assessed as growth inhibition after 24 hr by agar streak dilution method; format: functional; details: MTCC 109, 24 h
[12] = test system: Bacillus cereus; test: Antimicrobial activity against Bacillus cereus MTCC 430 assessed as growth inhibition after 24 hr by agar streak dilution method; format: functional; details: MTCC 430, 24 h
[13] = test system: Candida albicans; test: Antimicrobial activity against Candida albicans MTCC 183 assessed as diameter of growth inhibition zone after 48 hr; format: functional
[14] = test system: Aspergillus clavatus; test: Antimicrobial activity against Aspergillus clavatus MTCC 1323 assessed as diameter of growth inhibition zone after 48 hr; format: functional
[15] = test system: Aspergillus fumigatus; test: Antimicrobial activity against Aspergillus fumigatus MTCC 343 assessed as diameter of growth inhibition zone after 48 hr; format: functional
[16] = test system: Aspergillus niger; test: Antimicrobial activity against Aspergillus niger MTCC 282 assessed as diameter of growth inhibition zone after 48 hr; format: functional
[17] = test system: Salmonella typhi; test: Antimicrobial activity against Salmonella enterica subsp. enterica serovar Typhi MTCC 733 assessed as diameter of growth inhibition zone after 24 hr; format: functional
[18] = test system: Klebsiella pneumoniae; test: Antimicrobial activity against Klebsiella pneumoniae MTCC 109 assessed as diameter of growth inhibition zone after 24 hr; format: functional
[19] = test system: Bacillus cereus; test: Antimicrobial activity against Bacillus cereus MTCC 430 assessed as diameter of growth inhibition zone after 24 hr; format: functional
[20] = test system: Staphylococcus aureus; test: Antimicrobial activity against Staphylococcus aureus MTCC 96 assessed as growth inhibition at 100 ug/ml after 24 hr by agar streak dilution method; format: functional, organism-based
[21] = test system: Bacillus cereus; test: Antimicrobial activity against Bacillus cereus MTCC 430 assessed as growth inhibition at 100 ug/ml after 24 hr by agar streak dilution method; format: functional, organism-based
[22] = test system: Shigella flexneri; test: Antimicrobial activity against Shigella flexneri MTCC1457 assessed as growth inhibition after 24 hr by agar streak dilution method; format: functional; details: MTCC1457, 24 h
[23] = test system: Escherichia coli; test: Antimicrobial activity against Escherichia coli MTCC 739 assessed as growth inhibition after 24 hr by agar streak dilution method; format: functional; details: MTCC 739, 24 h
[24] = test system: Staphylococcus aureus; test: Antimicrobial activity against Staphylococcus aureus MTCC 96 assessed as growth inhibition after 24 hr by agar streak dilution method; format: functional; details: MTCC 96, 24 h
[25] = test system: Shigella flexneri; test: Antimicrobial activity against Shigella flexneri MTCC1457 assessed as diameter of growth inhibition zone after 24 hr; format: functional
[26] = test system: Escherichia coli; test: Antimicrobial activity against Escherichia coli MTCC 739 assessed as diameter of growth inhibition zone after 24 hr; format: functional
[27] = test system: Staphylococcus aureus; test: Antimicrobial activity against Staphylococcus aureus MTCC 96 assessed as diameter of growth inhibition zone after 24 hr; format: functional
[28] = test system: Proteus vulgaris; test: Antimicrobial activity against Proteus vulgaris MTCC 1771 assessed as growth inhibition after 24 hr by agar streak dilution method; format: functional; details: MTCC 1771, 24 h
[29] = test system: Pseudomonas aeruginosa; test: Antimicrobial activity against Pseudomonas aeruginosa MTCC 741 assessed as growth inhibition after 24 hr by agar streak dilution method; format: functional; details: MTCC 741, 24 h
[30] = test system: Proteus vulgaris; test: Antimicrobial activity against Proteus vulgaris MTCC 1771 assessed as diameter of growth inhibition zone after 24 hr; format: functional
[31] = test system: Pseudomonas aeruginosa; test: Antimicrobial activity against Pseudomonas aeruginosa MTCC 741 assessed as diameter of growth inhibition zone after 24 hr; format: functional

| SMILES | growth inhibition (GI) [5] [%] | MIC [5] [µg/mL] | MIC [6] [µg/mL] | MIC [7] [µg/mL] | MIC [8] [µg/mL] | MIC [9] [µg/mL] | MIC [10] [µg/mL] | MIC [11] [µg/mL] | MIC [12] [µg/mL] | diameter of the inhibition zone (DIZ) [13] [mm] | diameter of the inhibition zone (DIZ) [14] [mm] | diameter of the inhibition zone (DIZ) [15] [mm] | diameter of the inhibition zone (DIZ) [16] [mm] | diameter of the inhibition zone (DIZ) [17] [mm] | diameter of the inhibition zone (DIZ) [18] [mm] | diameter of the inhibition zone (DIZ) [19] [mm] | MIC [22] [µg/mL] | MIC [23] [µg/mL] | MIC [24] [µg/mL] | diameter of the inhibition zone (DIZ) [25] [mm] | also measured |
| --- | --- | --- | --- | --- | --- | --- | --- | --- | --- | --- | --- | --- | --- | --- | --- | --- | --- | --- | --- | --- | --- |
| O=C(/C=C/c1ccccc1)c1ccc(Nc2cc(=O)oc3ccccc23)cc1 | 95 | 1000 (≈ 2720 µM) | 100 (≈ 272 µM) | 100 (≈ 272 µM) | 100 (≈ 272 µM) | 100 (≈ 272 µM) | 100 (≈ 272 µM) | 100 (≈ 272 µM) | 100 (≈ 272 µM) | <10 | 15 | 12 | <10 | 11 | <10 | <10 |  |  |  |  | growth inhibition (GI) [1]: inactive; growth inhibition (GI) [2]: inactive; growth inhibition (GI) [3]: inactive; growth inhibition (GI) [4]: inactive; growth inhibition (GI) [20]: inactive |
| O=C(/C=C/c1ccc([N+](=O)[O-])cc1)c1ccc(Nc2cc(=O)oc3ccccc23)cc1 | 95 | 1000 (≈ 2420 µM) | 100 (≈ 242 µM) | 100 (≈ 242 µM) | 100 (≈ 242 µM) | 100 (≈ 242 µM) | 100 (≈ 242 µM) | 100 (≈ 242 µM) |  | 10 | 12 | <10 | 11 | 14 | 11 |  | 100 (≈ 242 µM) | 100 (≈ 242 µM) | 100 (≈ 242 µM) | 13 | growth inhibition (GI) [3]: inactive; growth inhibition (GI) [21]: inactive; growth inhibition (GI) [4]: inactive; diameter of the inhibition zone (DIZ) [26]: <10 mm; diameter of the inhibition zone (DIZ) [27]: <10 mm |
| O=C(/C=C/c1ccc(Cl)cc1Cl)c1ccc(Nc2cc(=O)oc3ccccc23)cc1 | 95 | 1000 (≈ 2290 µM) | 100 (≈ 229 µM) | 100 (≈ 229 µM) | 50 (≈ 115 µM) | 100 (≈ 229 µM) | 50 (≈ 115 µM) | 100 (≈ 229 µM) | 50 (≈ 115 µM) | 12 | 14 | 17 | 15 | 17 | 16 | 16 | 100 (≈ 229 µM) | 100 (≈ 229 µM) | 25 (≈ 57.3 µM) | 13 | MIC [28]: 50 µg/mL (≈ 115 µM); MIC [29]: 100 µg/mL (≈ 229 µM); diameter of the inhibition zone (DIZ) [30]: 19 mm; diameter of the inhibition zone (DIZ) [31]: <10 mm; diameter of the inhibition zone (DIZ) [26]: 14 mm; diameter of the inhibition zone (DIZ) [27]: 20 mm |
| Nc1nc(-c2ccc(Cl)cc2)cc(-c2ccc(Nc3cc(=O)oc4ccccc34)cc2)n1 | 97 | 200 (≈ 454 µM) | 12.5 (≈ 28.4 µM) | 50 (≈ 113 µM) | 25 (≈ 56.7 µM) | 50 (≈ 113 µM) | 25 (≈ 56.7 µM) | 12.5 (≈ 28.4 µM) | 50 (≈ 113 µM) | 21 | 17 | 19 | 17 | 20 | 22 | 19 | 25 (≈ 56.7 µM) | 50 (≈ 113 µM) | 50 (≈ 113 µM) | 21 | MIC [28]: 12.5 µg/mL (≈ 28.4 µM); MIC [29]: 100 µg/mL (≈ 227 µM); diameter of the inhibition zone (DIZ) [30]: 23 mm; diameter of the inhibition zone (DIZ) [31]: 16 mm; diameter of the inhibition zone (DIZ) [26]: 18 mm; diameter of the inhibition zone (DIZ) [27]: 20 mm |
| O=C(/C=C/c1ccc(F)cc1)c1ccc(Nc2cc(=O)oc3ccccc23)cc1 | 97 | 250 (≈ 649 µM) | 100 (≈ 259 µM) | 100 (≈ 259 µM) | 50 (≈ 130 µM) | 50 (≈ 130 µM) | 100 (≈ 259 µM) | 100 (≈ 259 µM) | 25 (≈ 64.9 µM) | 13 | 15 | 19 | 17 | 17 | 17 | 19 | 100 (≈ 259 µM) | 50 (≈ 130 µM) | 50 (≈ 130 µM) | 14 | MIC [28]: 50 µg/mL (≈ 130 µM); MIC [29]: 100 µg/mL (≈ 259 µM); diameter of the inhibition zone (DIZ) [30]: 18 mm; diameter of the inhibition zone (DIZ) [31]: 16 mm; diameter of the inhibition zone (DIZ) [26]: 18 mm; diameter of the inhibition zone (DIZ) [27]: 18 mm |
| Cc1ccc(/C=C/C(=O)c2ccc(Nc3cc(=O)oc4ccccc34)cc2)cc1 | 96 | 500 (≈ 1310 µM) | 100 (≈ 262 µM) | 100 (≈ 262 µM) | 100 (≈ 262 µM) | 100 (≈ 262 µM) | 100 (≈ 262 µM) | 100 (≈ 262 µM) | 100 (≈ 262 µM) | 11 | <10 | 13 | 14 | 13 | 10 | 15 | 50 (≈ 131 µM) | 100 (≈ 262 µM) | 100 (≈ 262 µM) | 18 | MIC [28]: 50 µg/mL (≈ 131 µM); MIC [29]: 100 µg/mL (≈ 262 µM); diameter of the inhibition zone (DIZ) [30]: 19 mm; diameter of the inhibition zone (DIZ) [31]: 15 mm; diameter of the inhibition zone (DIZ) [26]: <10 mm; diameter of the inhibition zone (DIZ) [27]: 14 mm |
| O=C(/C=C/c1ccccc1O)c1ccc(Nc2cc(=O)oc3ccccc23)cc1 | 97 | 500 (≈ 1300 µM) | 100 (≈ 261 µM) | 100 (≈ 261 µM) | 50 (≈ 130 µM) | 100 (≈ 261 µM) | 100 (≈ 261 µM) | 50 (≈ 130 µM) | 100 (≈ 261 µM) | 13 | 11 | 17 | 16 | 13 | 19 | 13 | 100 (≈ 261 µM) | 100 (≈ 261 µM) | 100 (≈ 261 µM) | 13 | MIC [28]: 100 µg/mL (≈ 261 µM); MIC [29]: 100 µg/mL (≈ 261 µM); diameter of the inhibition zone (DIZ) [30]: 15 mm; diameter of the inhibition zone (DIZ) [31]: 15 mm; diameter of the inhibition zone (DIZ) [26]: 14 mm; diameter of the inhibition zone (DIZ) [27]: 15 mm |
